± gives the expanded uncertainty stated by the source.

The results in this text go back to the NIST ThermoML archive (doi:10.1016/j.fluid.2009.01.012).

For this data set the following is noted: DTA.

For the compound `CC(C)C[P+](C)(CC(C)C)CC(C)C.Cc1ccc(S(=O)(=O)[O-])cc1` [triisobutylmethylphosphonium p-toluenesulfonate], the Glass transition temperature is -47.6 ± 5 °C.
